Reference: patent US20160222014A1, “COMPOUNDS FOR REGULATING FAK AND/OR SRC PATHWAYS” (ASANA BIOSCIENCES, LLC, priority 2013, published 2016)

Biological target: T1, recombinant human FAK1 (Homo sapiens, UniProt Q05397)
T1 construct: fused on or other part: N-terminal 6xHis tag
Assay: FAK1 HTRF assay
Type: biochemical
Procedure: Active FAK1 was prepared for use in the Homogeneous Time-Resolved Fluorescence (HTRF) assay. Briefly, N-terminal 6 His tagged recombinant human FAK1, from residue 692-end (GenBank accession no. L13616) was expressed by Bacculovirus in sf9 cells. […] A 1.6 mg/mL (45 μM) stock was used in the HTRF assay at a final concentration of 10 nM.
Gastrin precursor (tyr87) biotinylated peptide which contains the residues surrounding tyrosine 87 (EEAY*GWM) of gastrin precursor was obtained (Cell Signaling Tech, Item no. 1310, Lot 7). The peptide was provided at a stock concentration of 6 μM, and used a final concentration of 0.5 μM in the HTRF assay.
10 mM stock in 100 μL Enzyme assay buffer pH7.4 was prepared freshly and used at a final concentration of 10 μM in the assay.
Powders were dissolved in 100% DMSO to a final stock concentration of 10 mM. The volume needed (in μL) to add for 10 mM=mg powder is 10^5/MW of compound. The final compound concentration in the assay plate started at 10 μM.
Pfizer FAK inhibitor PF-562271 (N-methyl-N-(3-(((2-((2-oxoindolin-5-yl)amino)-5-(trifluoromethyl)pyrimidin-4-yl)amino)methyl)pyridin-2-yl)methanesulfonamide) was prepared as per the reported procedure from US Patent Publication No. 2005/256145A1.
Streptavidin-Allophycocyanin was obtained (Prozyme, Cat. No. PJ25S. SA-APC was provided at a stock concentration of 2.06 mg/mL, where APC concentration was 11.6 μM and the streptavidin concentration was 15.5 μM. SA-APC was used at a final concentration of 12 nM in the assay (based on streptavidin concentration).
This reagent was obtained from Perkin ElmerAD0068. Europium-W1024-PT-66 Anti Phospho Tyrosine Ab is a monoclonal IgG1 that recognizes phospho tyrosine peptide. 100 μg/mL stock was used at a final concentration of 0.1 nM in the assay.
• 1. The compound dilutions were made by TECAN liquid handler as per the scheme in FIG. 1. • 2. 16 μL of diluted compound was added to each well of the assay plate using TECAN liquid handler. • 3. 20 μL of substrate mix (biotinylated gastrin precursor) was added into each well of the assay plate manually. • 4. 10 μL of enzyme mix (FAK1) was added to each well except mins. • 5. The plate was incubated at rt for 45 min with shaking. • 6. The HTRF mix was prepared and 75 μL was added to the HTRF plate. • 7. After the incubation was over, 10 μL of the mixture was transferred to the HTRF assay plate and incubated for 45 min at rt with shaking. • 8. The readings were taken in Pherastar in HTRF mode (ext 337 nm, em 665 & 620 nm) • 9. The results were analyzed using Graphpad Prism® software after calculation the z factor signal window and % inhibition. • 10. The IC50 was calculated.

T1 sequence (Q05397 422-680 limits assumed): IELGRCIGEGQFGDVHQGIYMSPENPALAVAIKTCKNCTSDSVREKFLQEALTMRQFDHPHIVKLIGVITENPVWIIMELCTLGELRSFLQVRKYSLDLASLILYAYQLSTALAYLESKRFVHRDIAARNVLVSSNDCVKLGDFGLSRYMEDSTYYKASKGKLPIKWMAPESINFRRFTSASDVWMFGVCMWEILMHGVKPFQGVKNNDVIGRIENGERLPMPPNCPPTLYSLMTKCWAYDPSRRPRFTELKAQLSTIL

Row | IC50 [nM] | Compound
1 | < 20 | O=C(C1CC1)N1CCN(c2ccc(Nc3cc4c(cn3)cnn4S(=O)(=O)c3cccc4cccnc34)cc2)CC1 [Example 352]
2 | < 20 | CCC1CN(c2ccc(Nc3ncc4ccn(Cc5cc(OC)ccc5N(C)S(C)(=O)=O)c4n3)cc2)CCN1 (stereo not shown) [Example 704]
3 | < 20 | CN(C)C1CCN(c2ccc(Nc3ncc4ccn(Cc5cc(Cl)ccc5N(C)S(C)(=O)=O)c4n3)cc2)CC1 [Example 796]
4 | < 20 | CN1CCC(NC(=O)c2ccc(Nc3ncc4c(n3)N(S(=O)(=O)c3cccc5cccnc35)CC4(C)C)cc2)CC1 [Example 702]
5 | < 20 | CC1(C)CN(S(=O)(=O)c2cccc3cccnc23)c2nc(Nc3ccc(N4CCNCC4)cc3)ncc21 [Example 403]
6 | > 1000 | CC(=O)Nc1cccc(Nc2cc3nn(Cc4ccccc4OC(F)F)cc3cn2)c1 [Example 63]
7 | < 20 | Cc1ccc(N(C)S(C)(=O)=O)c(Cn2ccc3cnc(Nc4ccc(C5CCC(N(C)C)CC5)cc4)nc32)c1 (stereo not shown) [Example 980]
8 | < 20 | CN(c1ccccc1Cn1ncc2cnc(Nc3ccc(N4CCNCC4)cc3)cc21)S(C)(=O)=O [Example 222]
9 | > 1000 | CS(=O)(=O)c1ccc(Nc2cc3c(ccn3S(=O)(=O)c3cccc(OC(F)(F)F)c3)cn2)cc1 [Example 51]
10 | > 1000 | CC(=O)Nc1ccc(Nc2cc3c(cn2)c(C)nn3Cc2cccnc2N(C)S(C)(=O)=O)nc1 [Example 70]
11 | > 1000 | CSc1cccc(Nc2cc3c(ccn3Cc3cccnc3)cn2)c1 [Example 13]
12 | < 20 | CN(c1ccc(F)cc1Cn1ccc2cnc(Nc3ccc(N4CCCC(N)C4)cc3)nc21)S(C)(=O)=O (stereo not shown) [Example 800]
13 | > 1000 | CC(=O)Nc1cccc(Nc2cc3c(ccn3S(=O)(=O)c3ccc(OC(F)(F)F)cc3)cn2)c1 [Example 46]
14 | < 20 | Cc1cn(S(=O)(=O)c2cccc3cccnc23)c2nc(Nc3ccc(N4CCNCC4)cc3)ncc12 [Example 769]
15 | < 20 | CN(c1ccccc1Cn1ccc2cnc(Nc3ccc(NC(=O)C4CC4)cc3)nc21)S(C)(=O)=O [Example 450]
16 | > 1000 | CS(=O)(=O)c1ccc(Nc2cc3c(ccn3S(=O)(=O)c3ccccc3OC(F)(F)F)cn2)cc1 [Example 57]
17 | > 1000 | CN(c1ncccc1Cn1ccc2cnc(Nc3ccc(S(=O)(=O)C(F)F)cc3)cc21)S(C)(=O)=O [Example 25]
18 | < 20 | COc1cc(Nc2ncc3ccn(S(=O)(=O)c4cccc5cccnc45)c3n2)ccc1NC(=O)C1CCC1 [Example 373]
19 | < 20 | CN(c1ccc(F)cc1Cn1ccc2cnc(Nc3ccc4c(c3)CC(=O)N4)nc21)S(C)(=O)=O [Example 792]
20 | < 20 | CN(C)C1CCC(c2ccc(Nc3ncc4ccn(Cc5cc(F)ccc5N(C)S(C)(=O)=O)c4n3)cc2)CC1 (stereo not shown) [Example 806]
21 | > 1000 | CC(=O)Nc1cccc(Nc2cc3c(cn2)c(C)nn3S(=O)(=O)c2ccccc2OC(F)(F)F)c1 [Example 88]

Row | IC50 [nM] | Compound
22 | > 1000 | CC(=O)Nc1cccc(Nc2cc3c(cn2)c(C)nn3Cc2cccnc2N(C)S(C)(=O)=O)c1 [Example 68]
23 | < 20 | CNC1CCN(c2ccc(Nc3ncc4ccn(Cc5cc(OC)ccc5N(C)S(C)(=O)=O)c4n3)cc2)CC1 [Example 709]
24 | > 1000 | CC(=O)Nc1cccc(Oc2ncc3ccn(Cc4cccnc4N(C)S(C)(=O)=O)c3n2)c1 [Example 124]
25 | < 20 | CN(c1ccccc1Cn1ccc2cnc(Nc3ccc(N4CCN5C(=O)CCC5C4)cc3)nc21)S(C)(=O)=O (stereo not shown) [Example 436]
26 | < 20 | CNC(=O)c1ccc(Nc2ncc3ccn(Cc4cc(C)ccc4N(C)S(C)(=O)=O)c3n2)cc1 [Example 986]
27 | < 20 | Cc1ccc(N(C)S(C)(=O)=O)c(Cn2ccc3cnc(Nc4ccc(N5CCN[C@@H](C)C5)cc4)nc32)c1 [Example 766]
28 | > 1000 | COc1cc(Nc2cc3c(ccn3Cc3cccnc3)cn2)cc(OC)c1OC [Example 6]
29 | < 20 | COc1cc(Nc2ncc3ccn(Cc4cc(C)ccc4N(C)S(C)(=O)=O)c3n2)ccc1N1CCNCC1 [Example 942]
30 | < 20 | CN(c1ccccc1Cn1ccc2cnc(Nc3ccc(N4CCNCC4)cc3)cc21)S(C)(=O)=O [Example 325]
31 | < 20 | C[C@H]1CN(c2ccc(Nc3ncc4ccn(Cc5cc(C(F)(F)F)ccc5N(C)S(C)(=O)=O)c4n3)cc2)CCN1 [Example 810]
32 | < 20 | CN(c1ccccc1Cn1ccc2cnc(Nc3ccc(OCCN4CCNCC4)cc3)nc21)S(C)(=O)=O [Example 572]
33 | < 20 | O=C1CCc2cc(Nc3cc4c(cn3)cnn4S(=O)(=O)c3cccc4cccnc34)ccc2N1 [Example 187]
34 | < 20 | COc1cc(Nc2ncc3ccn(S(=O)(=O)c4cccc5cccnc45)c3n2)ccc1N1CC2CC1CN2C (stereo not shown) [Example 439]
35 | > 1000 | O=S(=O)(c1ccc(Nc2cc3c(ccn3Cc3ccccc3OC(F)F)cn2)cc1)C(F)F [Example 19]
36 | > 1000 | O=S(=O)(C1CCCC1)n1ccc2cnc(Nc3ccc(N4CCNCC4)cc3)nc21 [Example 238]
37 | < 20 | CN(c1ccccc1Cn1ccc2cnc(Nc3ccc(N4CCNCC4)c(F)c3)nc21)S(C)(=O)=O [Example 438]
38 | < 20 | CN(c1ccc(F)cc1Cn1ccc2cnc(Nc3ccc(N4CCNCC4)cc3)nc21)S(C)(=O)=O [Example 805]
39 | < 20 | O=S(=O)(c1cccc2cccnc12)n1ccc2cnc(Nc3ccc(N4CCCC(CO)C4)cc3)nc21 (stereo not shown) [Example 425]
40 | < 20 | CN(c1ccc(F)cc1Cn1ccc2cnc(Nc3ccc(N4CCN(CCO)CC4)cc3)nc21)S(C)(=O)=O [Example 920]
41 | > 1000 | O=C1CCc2cc(Nc3cc4nn(Cc5ccccc5OC(F)F)cc4cn3)ccc2N1 [Example 67]
42 | < 20 | CN(c1ccc(C#N)cc1Cn1ccc2cnc(Nc3ccc(N4CCNCC4)cc3)nc21)S(C)(=O)=O [Example 715]

Row | IC50 [nM] | Compound
43 | < 20 | C[C@@H]1CN(c2ccc(Nc3ncc4ccn(Cc5cc(F)ccc5N(C)S(C)(=O)=O)c4n3)cc2)CCN1 [Example 793]
44 | < 20 | C[C@H]1CN(c2ccc(Nc3ncc4ccn(Cc5cc(Cl)ccc5N(C)S(C)(=O)=O)c4n3)cc2)CCN1 [Example 899]
45 | < 20 | CN(c1ccc(F)cc1Cn1ccc2cnc(Nc3ccc(N4CCC(N)CC4)cc3)nc21)S(C)(=O)=O [Example 799]
46 | < 20 | Cc1ccc(N(C)S(C)(=O)=O)c(Cn2ccc3cnc(Nc4ccc(C5CCNCC5)c(C)c4)nc32)c1 [Example 807]
47 | > 1000 | CNC(=O)Cc1ccccc1Cn1ccc2cnc(Nc3ccc(N4CCN(C)CC4)cc3)nc21 [Example 474]
48 | > 1000 | CN(c1ncccc1Cn1ccc2cnc(Nc3ccc4c(c3)C(=O)NC4=O)nc21)S(C)(=O)=O [Example 74]
49 | < 20 | CN1CCC(Oc2ccc(Nc3ncc4ccn(Cc5ccccc5N(C)S(C)(=O)=O)c4n3)cc2)CC1 [Example 531]
50 | > 1000 | O=S(=O)(c1ccc(Nc2ncc3ccn(Cc4cccnc4)c3n2)cc1)C(F)F [Example 17]
51 | > 1000 | CN(c1ncccc1Cn1ccc2cnc(Nc3ccc(C#N)nc3)cc21)S(C)(=O)=O [Example 22]
52 | > 1000 | O=C1CCc2cc(Nc3ncc4cnn(Cc5cccnc5)c4n3)ccc2N1 [Example 14]
53 | < 20 | C[C@@H]1CN(c2ccc(Nc3ncc4ccn(Cc5ccccc5N(C)S(C)(=O)=O)c4n3)cc2C2CC2)CCN1 [Example 710]
54 | > 1000 | Cn1cnc(S(=O)(=O)n2ccc3cnc(Nc4ccc(N5CCNCC5)cc4)nc32)c1 [Example 236]
55 | < 20 | CC1CN(c2ccc(Nc3ncc4ccn(Cc5ccccc5N(C)S(C)(=O)=O)c4n3)cc2)CC(C)N1 (stereo not shown) [Example 523]
56 | > 1000 | COc1ccc(Nc2cc3c(ccn3S(=O)(=O)c3cccc(OC(F)(F)F)c3)cn2)cc1 [Example 53]
57 | > 1000 | CSc1cccc(Nc2ncc3cnn(Cc4cccnc4)c3n2)c1 [Example 10]
58 | < 20 | O=S(=O)(c1cccc2cccnc12)n1ncc2cnc(Nc3ccc(N4CCOCC4)cc3)nc21 [Example 409]
59 | < 20 | CNc1ccc(Nc2ncc3ccn(Cc4cccnc4N(C)S(C)(=O)=O)c3n2)cc1 [Example 156]
60 | < 20 | CN(C)C1CN(c2ccc(Nc3ncc4ccn(Cc5ccccc5N(C)S(C)(=O)=O)c4n3)cc2)C1 [Example 588]
61 | < 20 | COc1cc(Nc2cc3c(ccn3S(=O)(=O)c3ccccc3C#N)cn2)ccc1N1CCN(C)CC1 [Example 492]
